We go through two molecules from paper PMC5209718, “Piscidin-1-analogs with double L- and D-lysine residues exhibited different conformations in lipopolysaccharide but comparable anti-endotoxin activities” (Scientific Reports, 2017).

Series [1] has as its system human red blood cells (hRBCs). The series is classed as cell-based. From the text: Cytotoxic activity of piscidin-1 and its designed analogs was examined by assaying the lysis of human red blood cells (hRBCs) and the viability of murine 3T3 cells in presence of these peptides. […] Introduction of D-lysine (dK)residues instead of threonine residues at 15th & 21st positions further reduced the haemolytic activity of piscidin-1 (Fig. 1A). Overall, haemolytic activity of these peptides against hRBCs followed the order piscidin-1 > T15K-piscidin-1 > T15dK-piscidin-1 > T15,21K-piscidin-1 > T15,21dK-piscidin-1. Viability of 3T3 cells as determined by MTT assay in the presence of these peptides followed the same trend as their haemolytic activity (Fig. 1B).
Haemolytic activity of the peptides against human red blood cells in PBS was performed by assaying the ability of the peptides to lyse the hRBCs[24][48]. For this purpose, fresh human red blood cells (hRBCs) were collected in the presence of an anti-coagulant from a healthy volunteer. After washing the blood three times with PBS haemolytic activity of the peptides were determined as reported previously. Methodology of our experiment with human blood was in accordance with relevant guidelines and regulations of CSIR-central drug research institute ethics committee and was approved by it with approval No. CDRI/IEC/2014/A5. Further, informed consent was obtained from the healthy volunteer before collection of blood as per the guideline of our Institutional ethics committee.

Series [2] has as its system P. aeruginosa (ATCC BAA-427). In words: microbe, parasite or virus in culture. The settings on record: ATCC BAA-427. The class given is cell-based. From the text:
(§1) Piscidin-1 and its analogs were examined for bacterial growth-inhibiting activity in liquid cultures against Gram-positive bacteria including MRSA strains and Gram-negative bacteria (Table 2). […] The therapeutic index is a parameter that signify the specificity or selectivity of antimicrobial agents towards microorganisms over mammalian cells.
(§2) Antibacterial assays with all the peptides were done in 96-well microtiter plates against different Gram-positive, Gram-negative and resistant bacteria as described earlier.

Series [3] concerns Staphylococcus aureus (ATCC 25923). As to the kind of experiment: microbe, parasite or virus in culture. To be noted: ATCC 25923. The class given is cell-based.
Text: as §1, §2

The test system of series [4] is Staphylococcus aureus (ATCC 29213). In words: microbe, parasite or virus in culture. The series is classed as cell-based. The settings on record: ATCC 29213.
Text: as §1, §2

Series [5] deals with K. pneumoniae (ATCC 27736). In words: microbe, parasite or virus in culture. The series is classed as cell-based. To be noted: ATCC 27736.
Text: as §1, §2

The subject of the next series is B. subtilis (ATCC 6633). In words: microbe, parasite or virus in culture. The class given is cell-based. To be noted: ATCC 6633.
Text: as §1, §2

Series [6] deals with Staphylococcus aureus (ATCC BAA-44 MRSA). As to the kind of experiment: microbe, parasite or virus in culture. To be noted: ATCC BAA-44.
Text: as §1, §2

The subject of series [7] is Staphylococcus aureus (ATCC 700698 MRSA). In words: microbe, parasite or virus in culture. To be noted: ATCC 700698.
Text: as §1, §2

Series [8] deals with Staphylococcus aureus (ATCC 33592 Gentamycin Resistant). In words: microbe, parasite or virus in culture. The settings on record: ATCC 33592.
Text: as §1, §2

Series [9] deals with Staphylococcus aureus (ATCC 1708 MRSA). As to the kind of experiment: microbe, parasite or virus in culture. The settings on record: ATCC 1708.
Text: as §1, §2

The subject of series [10] is Staphylococcus aureus (ATCC 700699 MRSA). As to the kind of experiment: microbe, parasite or virus in culture. To be noted: ATCC 700699.
Text: as §1, §2

For series [11] the following is noted: no LPS, BALB/c mice, data not shown.
The test system of a further series is E. coli (ATCC 25922). In words: Antibacterial activity (MIC), liquid culture in 96-well microtiter plates. The series is classed as cell-based. To be noted: means of three independent experiments each in duplicate ± SD, read-out: Minimum inhibitory conc. (MIC) against bacteria 11.
Text: as §1, §2

The subject of series [12] is E. coli 0111:B4 LPS-administered mice. As to the kind of experiment: In vivo anti-LPS activity: survival of LPS-administered mice (septic shock). The settings on record: BALB/c mice, monitored 7 days; for survival of LPS-administered mice: n = 5.
Description: Septic shock in BALB/c mice was induced by intraperitoneal (i.p.) injection of E. coli LPS (12 mg/kg) followed by i.p. injection of T15,21K-piscidin-1 (0.5 mg/Kg) or T15,21dK-piscidin-1 (1 mg/Kg) or polymyxin B (1 mg/Kg) ~5 min later. Mice treated with only saline was taken as control. Survival of the animals (n = 5) was monitored for 7 days (***p < 0.0001, log-rank test).
Polymyxin B was taken as the positive control and the experiments were performed as reported earlier[14][30][31].
In vivo studies, treat ment of Mice
Female BALB/c mice (National laboratory animal centre, central drug research institute,
Lucknow) we re given a s tandard laborato r y diet an d water ad libitum and housed under controlled
environmental conditions. The mice wer e approx imatel y 25 g each at the st art of experiments. All
the mice were divided into experimental groups for the administration of LPS and peptides. Mice
were treated with 12 m g/ kg E. coli 0111: B4 LPS i n presen ce and in absen ce of peptide in different
experimental groups. The mice treated with saline onl y, in absence of LP S were considered as
experimental controls. To study the efficacy of a peptide in neutralizing LPS-induced pro-
inflammatory responses in mice ~5 min post LPS treatment, the respective peptide was
administered i.p. at a site other than the one, used for LPS injection. […] Survival of mice was
monitored for 7 da ys. Survival of mice was also mo nitored following th e treatment of onl y p eptides
for investigating their toxic effects.

≈ marks a conversion by molar mass, not a printed value. Like-named read-outs stand apart in the source and are kept apart here. Residues, ends and D or L forms follow the SMILES beside them.

Turning to `CC[C@H](C)[C@H](NC(=O)CNC(=O)[C@H](CCCNC(=N)N)NC(=O)[C@H](Cc1ccccc1)NC(=O)[C@@H](NC(=O)[C@H](Cc1c[nH]cn1)NC(=O)[C@H](Cc1c[nH]cn1)NC(=O)[C@H](Cc1ccccc1)NC(=O)[C@@H](N)Cc1ccccc1)[C@@H](C)CC)C(=O)N[C@H](C(=O)N[C@@H](Cc1c[nH]cn1)C(=O)N[C@H](C(=O)NCC(=O)N[C@@H](CCCCN)C(=O)N[C@H](CCCCN)C(=O)N[C@H](C(=O)N[C@@H](Cc1c[nH]cn1)C(=O)N[C@@H](CCCNC(=N)N)C(=O)N[C@@H](CC(C)C)C(=O)N[C@H](C(=O)N[C@H](CCCCN)C(=O)NCC(N)=O)C(C)C)[C@@H](C)CC)C(C)C)C(C)C` [T15,21dK Piscidin-1] (HELM PEPTIDE1{F.F.H.H.I.F.R.G.I.V.H.V.G.K.[dK].I.H.R.L.V.[dK].G.[am]}$$$$V2.0), in [1], the “HC50, peptide concentration leading to 50% lysis of human RBC” value came out at 500 µM. In addition, the “Minimum inhibitory conc. (MIC) against bacteria 8” value in series [2] was 9.0 ± 1.3 µM (≈ 23.6 µg/mL). Moreover, the “Minimum inhibitory conc. (MIC) against bacteria 1” value in [3] was 5.0 ± 0.7 µM (≈ 13.1 µg/mL). For the same molecule, the “Minimum inhibitory conc. (MIC) against bacteria 2” value in series [4] is 5.0 ± 0.7 µM (≈ 13.1 µg/mL). For the same molecule, in [5], the “Minimum inhibitory conc. (MIC) against bacteria 10” value was found to be 5.0 ± 0.7 µM (≈ 13.1 µg/mL). Further, the “Minimum inhibitory conc. (MIC) against bacteria 9” value in the series with B. subtilis (ATCC 6633) came to 9.0 ± 1.3 µM (≈ 23.6 µg/mL). Moreover, the “Minimum inhibitory conc. (MIC) against bacteria 5” value in series [6] was 5.0 ± 0.7 µM (≈ 13.1 µg/mL). Moreover, the “Minimum inhibitory conc. (MIC) against bacteria 6” value in series [7] stood at 10.0 ± 1.4 µM (≈ 26.3 µg/mL). In [8], the “Minimum inhibitory conc. (MIC) against bacteria 4” value came out at 5.0 ± 0.7 µM (≈ 13.1 µg/mL). In [9], the “Minimum inhibitory conc. (MIC) against bacteria 7” value was determined as 5.0 ± 0.7 µM (≈ 13.1 µg/mL). Moreover, the “Minimum inhibitory conc. (MIC) against bacteria 3” value in series [10] was determined as 10.0 ± 1.4 µM (≈ 26.3 µg/mL). Besides, in [11] (1.0 mg/kg), the “survival of control mice treated only with peptide” value was 100%. Besides, the MIC in the series on E. coli (ATCC 25922) is given as 5.0 µM (≈ 13.1 µg/mL). In [12] (peptide 1.0 mg/Kg i.p. ~5 min after LPS 12.0 mg/Kg i.p.), the “survival of LPS-administered mice” value amounted to 100%. Moreover, the “mortality rate of LPS-administered mice” value in [12] (single dose 1.0 mg/kg i.p. after LPS 12 mg/kg) is listed as “zero”.
As to “H-FFHHIFRGIVHVGKKIHRLVKG-NH2 [T15,21K Piscidin-1]”, the “HC50, peptide concentration leading to 50% lysis of human RBC” value in [1] was determined as 200 µM. Moreover, in series [2], the “Minimum inhibitory conc. (MIC) against bacteria 8” value turned out to be 5.0 ± 0.7 µM. In series [3], the “Minimum inhibitory conc. (MIC) against bacteria 1” value was 1.25 ± 0.3 µM. For the same molecule, in series [4], the “Minimum inhibitory conc. (MIC) against bacteria 2” value stood at 2.5 ± 0.4 µM. Also, the “Minimum inhibitory conc. (MIC) against bacteria 10” value in series [5] came to 3.0 ± 0.4 µM. Moreover, the “Minimum inhibitory conc. (MIC) against bacteria 9” value with B. subtilis (ATCC 6633) worked out at 5.0 ± 0.7 µM. In [6], the “Minimum inhibitory conc. (MIC) against bacteria 5” value was found to be 1.25 ± 0.3 µM. In [7], the “Minimum inhibitory conc. (MIC) against bacteria 6” value was determined as 2.5 ± 0.4 µM. The “Minimum inhibitory conc. (MIC) against bacteria 4” value in series [8] stood at 2.5 ± 0.4 µM. For the same molecule, the “Minimum inhibitory conc. (MIC) against bacteria 7” value in [9] amounted to 1.25 ± 0.3 µM. Besides, the “Minimum inhibitory conc. (MIC) against bacteria 3” value in series [10] was 2.5 ± 0.4 µM. Further, in series [11] (0.5 mg/kg), the “survival of control mice treated only with peptide” value worked out at 100%. The MIC with E. coli (ATCC 25922) is given as 2.0 µM. For the same molecule, the “survival of LPS-administered mice” value in series [12] (peptide 0.5 mg/Kg i.p. ~5 min after LPS 12.0 mg/Kg i.p.) stood at 100%. In addition, the “mortality rate of LPS-administered mice” value in series [12] (single dose 0.5 mg/kg i.p. after LPS 12 mg/kg) is listed as “zero”.

As usually defined, the MIC is the least concentration at which growth counts as inhibited.
